PubChem BioAssay (NCI)
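Values below derive from 48-hour exposures of cells grown in 96-well plates, with endpoints linearly interpolated between the two concentrations bracketing the appropriate inhibition level. GI50: concentration for 50% inhibition of growth. Definition used: TGI = concentration required for complete inhibition of growth.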

Key:
Experiment in all cases: NCI anticancer screen, dose series, 48 h
UACC-62 melanoma = tested on: UACC-62 melanoma
OVCAR-5 ovarian = tested on: OVCAR-5 ovarian
A549 NSCLC = tested on: A549 NSCLC
RPMI-8226 leukemia = tested on: RPMI-8226 leukemia
U251 CNS = tested on: U251 CNS
T-47D breast = tested on: T-47D breast
MCF7 breast = tested on: MCF7 breast
A498 renal = tested on: A498 renal
SK-MEL-5 melanoma = tested on: SK-MEL-5 melanoma
SNB-19 CNS = tested on: SNB-19 CNS
HT29 colon = tested on: HT29 colon
M14 melanoma = tested on: M14 melanoma
SNB-75 CNS = tested on: SNB-75 CNS
NCI-H226 lung = tested on: NCI-H226 lung
HCT-15 colon = tested on: HCT-15 colon
BT-549 breast = tested on: BT-549 breast
TK-10 renal = tested on: TK-10 renal
LOX IMVI melanoma = tested on: LOX IMVI melanoma
ACHN renal = tested on: ACHN renal
MOLT-4 leukemia = tested on: MOLT-4 leukemia
HCC-2998 colon = tested on: HCC-2998 colon
MALME-3M melanoma = tested on: MALME-3M melanoma
SW-620 colon = tested on: SW-620 colon
NCI-H23 lung = tested on: NCI-H23 lung
KM12 colon = tested on: KM12 colon
DU-145 prostate = tested on: DU-145 prostate
OVCAR-4 ovarian = tested on: OVCAR-4 ovarian
MDA-MB-435 = tested on: MDA-MB-435
HL-60(TB) leukemia = tested on: HL-60(TB) leukemia
SF-295 CNS = tested on: SF-295 CNS
K-562 leukemia = tested on: K-562 leukemia
PC-3 prostate = tested on: PC-3 prostate
OVCAR-8 ovarian = tested on: OVCAR-8 ovarian
786-0 renal = tested on: 786-0 renal
CCRF-CEM leukemia = tested on: CCRF-CEM leukemia
NCI-H460 lung = tested on: NCI-H460 lung
CAKI-1 renal = tested on: CAKI-1 renal
EKVX NSCLC = tested on: EKVX NSCLC
SK-OV-3 ovarian = tested on: SK-OV-3 ovarian
SF-539 CNS = tested on: SF-539 CNS
HOP-92 NSCLC = tested on: HOP-92 NSCLC
COLO 205 colon = tested on: COLO 205 colon
RXF 393 renal = tested on: RXF 393 renal
UACC-257 melanoma = tested on: UACC-257 melanoma
SN12C renal = tested on: SN12C renal
UO-31 renal = tested on: UO-31 renal
SF-268 CNS = tested on: SF-268 CNS
SK-MEL-2 melanoma = tested on: SK-MEL-2 melanoma
MDA-MB-231 breast = tested on: MDA-MB-231 breast
HS 578T breast = tested on: HS 578T breast
SK-MEL-28 melanoma = tested on: SK-MEL-28 melanoma
NCI-H522 lung = tested on: NCI-H522 lung
HOP-62 NSCLC = tested on: HOP-62 NSCLC
NCI/ADR-RES ovarian = tested on: NCI/ADR-RES ovarian
IGROV1 ovarian = tested on: IGROV1 ovarian
OVCAR-3 ovarian = tested on: OVCAR-3 ovarian
SR leukemia = tested on: SR leukemia
HCT-116 colon = tested on: HCT-116 colon

`Clc1nc(Cl)c2ncn(C/C=C/COc3cccc(OC/C=C/Cn4cnc5c(Cl)nc(Cl)nc54)c3)c2n1` was tested, and the GI50 (UACC-62 melanoma) was over 100 µM, the TGI (UACC-62 melanoma) was over 100 µM and the GI50 (OVCAR-5 ovarian) was over 100 µM. The TGI (OVCAR-5 ovarian) was over 100 µM, the GI50 (A549 NSCLC) was over 100 µM and the TGI (A549 NSCLC) was over 100 µM. The GI50 (RPMI-8226 leukemia) was 25.3 µM, the TGI (RPMI-8226 leukemia) was over 100 µM and the GI50 (U251 CNS) was 65.6 µM. It also gave a TGI (U251 CNS) of over 100 µM, a GI50 (T-47D breast) of 99.8 µM and a TGI (T-47D breast) of over 100 µM. The GI50 (MCF7 breast) was 73.5 µM, the TGI (MCF7 breast) was over 100 µM and the GI50 (A498 renal) was over 100 µM. It also gave a TGI (A498 renal) of over 100 µM, a GI50 (SK-MEL-5 melanoma) of 53.5 µM and a TGI (SK-MEL-5 melanoma) of over 100 µM. For the same compound, the GI50 (SNB-19 CNS) was over 100 µM, the TGI (SNB-19 CNS) was over 100 µM and the GI50 (HT29 colon) was over 100 µM. The TGI (HT29 colon) was over 100 µM, the GI50 (M14 melanoma) was 32.7 µM and the TGI (M14 melanoma) was over 100 µM. It also gave a GI50 (SNB-75 CNS) of 57.1 µM, a TGI (SNB-75 CNS) of over 100 µM and a GI50 (NCI-H226 lung) of over 100 µM. It also gave a TGI (NCI-H226 lung) of over 100 µM, a GI50 (HCT-15 colon) of 57.7 µM and a TGI (HCT-15 colon) of over 100 µM. The GI50 (BT-549 breast) was 66.1 µM, the TGI (BT-549 breast) was over 100 µM and the GI50 (TK-10 renal) was over 100 µM. It also gave a TGI (TK-10 renal) of over 100 µM, a GI50 (LOX IMVI melanoma) of 25.9 µM and a TGI (LOX IMVI melanoma) of over 100 µM. The GI50 (ACHN renal) was over 100 µM, the TGI (ACHN renal) was over 100 µM and the GI50 (MOLT-4 leukemia) was 26.5 µM. It also gave a TGI (MOLT-4 leukemia) of over 100 µM, a GI50 (HCC-2998 colon) of 42.1 µM and a TGI (HCC-2998 colon) of over 100 µM. It also gave a GI50 (MALME-3M melanoma) of over 100 µM, a TGI (MALME-3M melanoma) of over 100 µM and a GI50 (SW-620 colon) of over 100 µM. It also gave a TGI (SW-620 colon) of over 100 µM, a GI50 (NCI-H23 lung) of over 100 µM and a TGI (NCI-H23 lung) of over 100 µM. The GI50 (KM12 colon) was 56.5 µM, the TGI (KM12 colon) was over 100 µM and the GI50 (DU-145 prostate) was 14.7 µM. For the same compound, the TGI (DU-145 prostate) was 27.8 µM, the GI50 (OVCAR-4 ovarian) was 36.3 µM and the TGI (OVCAR-4 ovarian) was over 100 µM. The GI50 (MDA-MB-435) was over 100 µM, the TGI (MDA-MB-435) was over 100 µM and the GI50 (HL-60(TB) leukemia) was 14.7 µM. It also gave a TGI (HL-60(TB) leukemia) of 27.8 µM, a GI50 (SF-295 CNS) of over 100 µM and a TGI (SF-295 CNS) of over 100 µM. It also gave a GI50 (K-562 leukemia) of 29.7 µM, a TGI (K-562 leukemia) of over 100 µM and a GI50 (PC-3 prostate) of 42 µM. The TGI (PC-3 prostate) was over 100 µM, the GI50 (OVCAR-8 ovarian) was over 100 µM and the TGI (OVCAR-8 ovarian) was over 100 µM. For the same compound, the GI50 (786-0 renal) was over 100 µM, the TGI (786-0 renal) was over 100 µM and the GI50 (CCRF-CEM leukemia) was 31 µM. For the same compound, the TGI (CCRF-CEM leukemia) was over 100 µM, the GI50 (NCI-H460 lung) was over 100 µM and the TGI (NCI-H460 lung) was over 100 µM. The GI50 (CAKI-1 renal) was over 100 µM, the TGI (CAKI-1 renal) was over 100 µM and the GI50 (EKVX NSCLC) was over 100 µM. The TGI (EKVX NSCLC) was over 100 µM, the GI50 (SK-OV-3 ovarian) was over 100 µM and the TGI (SK-OV-3 ovarian) was over 100 µM. It also gave a GI50 (SF-539 CNS) of over 100 µM, a TGI (SF-539 CNS) of over 100 µM and a GI50 (HOP-92 NSCLC) of over 100 µM. The TGI (HOP-92 NSCLC) was over 100 µM, the GI50 (COLO 205 colon) was over 100 µM and the TGI (COLO 205 colon) was over 100 µM. It also gave a GI50 (RXF 393 renal) of 65 µM, a TGI (RXF 393 renal) of over 100 µM and a GI50 (UACC-257 melanoma) of over 100 µM. The TGI (UACC-257 melanoma) was over 100 µM, the GI50 (SN12C renal) was over 100 µM and the TGI (SN12C renal) was over 100 µM. The GI50 (UO-31 renal) was over 100 µM, the TGI (UO-31 renal) was over 100 µM and the GI50 (SF-268 CNS) was over 100 µM. The TGI (SF-268 CNS) was over 100 µM, the GI50 (SK-MEL-2 melanoma) was over 100 µM and the TGI (SK-MEL-2 melanoma) was over 100 µM. For the same compound, the GI50 (MDA-MB-231 breast) was 12.7 µM, the TGI (MDA-MB-231 breast) was 25.3 µM and the GI50 (HS 578T breast) was 39.4 µM. The TGI (HS 578T breast) was over 100 µM, the GI50 (SK-MEL-28 melanoma) was over 100 µM and the TGI (SK-MEL-28 melanoma) was over 100 µM. It also gave a GI50 (NCI-H522 lung) of over 100 µM, a TGI (NCI-H522 lung) of over 100 µM and a GI50 (HOP-62 NSCLC) of 99.6 µM. The TGI (HOP-62 NSCLC) was over 100 µM, the GI50 (NCI/ADR-RES ovarian) was over 100 µM and the TGI (NCI/ADR-RES ovarian) was over 100 µM. For the same compound, the GI50 (IGROV1 ovarian) was over 100 µM, the TGI (IGROV1 ovarian) was over 100 µM and the GI50 (OVCAR-3 ovarian) was 95 µM. For the same compound, the TGI (OVCAR-3 ovarian) was over 100 µM.
`CC(C)(Oc1ccc(Cl)cc1)C(=O)N(C(=O)N1CCC(c2ccccc2)CC1)c1ccccc1` showed a TGI (UACC-62 melanoma) of over 100 µM, a TGI (OVCAR-5 ovarian) of over 100 µM and a TGI (A549 NSCLC) of over 100 µM. It also gave a TGI (RPMI-8226 leukemia) of over 46.3 µM, a TGI (U251 CNS) of over 100 µM and a TGI (T-47D breast) of over 30.3 µM. The TGI (MCF7 breast) was over 100 µM, the TGI (A498 renal) was over 100 µM and the TGI (SK-MEL-5 melanoma) was 65.8 µM. The TGI (SNB-19 CNS) was over 100 µM, the TGI (HT29 colon) was over 100 µM and the TGI (M14 melanoma) was over 100 µM. The TGI (SNB-75 CNS) was over 83.2 µM, the TGI (SR leukemia) was over 100 µM and the TGI (NCI-H226 lung) was over 100 µM. For the same compound, the TGI (HCT-15 colon) was over 100 µM, the TGI (BT-549 breast) was over 95.8 µM and the TGI (TK-10 renal) was over 100 µM. For the same compound, the TGI (LOX IMVI melanoma) was over 100 µM, the TGI (ACHN renal) was over 100 µM and the TGI (MOLT-4 leukemia) was over 28.3 µM. It also gave a TGI (HCC-2998 colon) of over 100 µM, a TGI (MALME-3M melanoma) of over 100 µM and a TGI (SW-620 colon) of over 100 µM. For the same compound, the TGI (NCI-H23 lung) was over 100 µM, the TGI (KM12 colon) was over 100 µM and the TGI (DU-145 prostate) was over 100 µM. For the same compound, the TGI (OVCAR-4 ovarian) was over 100 µM, the TGI (MDA-MB-435) was over 100 µM and the TGI (HL-60(TB) leukemia) was 29 µM. For the same compound, the TGI (SF-295 CNS) was over 100 µM, the TGI (K-562 leukemia) was over 100 µM and the TGI (PC-3 prostate) was over 100 µM. For the same compound, the TGI (OVCAR-8 ovarian) was over 100 µM, the TGI (786-0 renal) was over 100 µM and the TGI (CCRF-CEM leukemia) was over 100 µM. It also gave a TGI (NCI-H460 lung) of over 100 µM, a TGI (HCT-116 colon) of over 100 µM and a TGI (CAKI-1 renal) of over 100 µM. For the same compound, the TGI (EKVX NSCLC) was over 100 µM, the TGI (SK-OV-3 ovarian) was over 100 µM and the TGI (SF-539 CNS) was over 100 µM. For the same compound, the TGI (HOP-92 NSCLC) was over 100 µM, the TGI (COLO 205 colon) was over 62.5 µM and the TGI (RXF 393 renal) was over 100 µM. The TGI (UACC-257 melanoma) was over 100 µM, the TGI (SN12C renal) was over 100 µM and the TGI (UO-31 renal) was over 100 µM. For the same compound, the TGI (SF-268 CNS) was over 100 µM, the TGI (SK-MEL-2 melanoma) was over 100 µM and the TGI (MDA-MB-231 breast) was over 100 µM. For the same compound, the TGI (HS 578T breast) was over 100 µM, the TGI (SK-MEL-28 melanoma) was over 100 µM and the TGI (HOP-62 NSCLC) was over 100 µM. The TGI (NCI/ADR-RES ovarian) was over 100 µM, the TGI (IGROV1 ovarian) was over 100 µM and the TGI (OVCAR-3 ovarian) was over 100 µM.
